Columns and labels:
Conditions in all cases: 72 h
[1] = system: Caco-2; test: cell viability relative to DMSO; higher = less toxic
[2] = system: Calu-3; test: as above
[3] = system: HepG2; test: as above
[4] = system: U2OS; test: as above
[5] = system: Vero E6; test: as above
[6] = system: Caco-2; test: relative viability EC50 (midpoint between 100% and the lowest measured viability); higher = less toxic
[7] = system: Calu-3; test: as above
[8] = system: HepG2; test: as above
[9] = system: U2OS; test: as above
[10] = system: Vero E6; test: as above
[11] = system: Caco-2; test: drug sensitivity score (DSS) for viability; higher = more toxic; extreme values may be limits of the assay
[12] = system: Calu-3; test: as above
[13] = system: HepG2; test: as above
[14] = system: U2OS; test: as above
[15] = system: Vero E6; test: as above

| SMILES | cell viability ([1]; 1 nM) | cell viability ([1]; 10 nM) | cell viability ([1]; 100 nM) | cell viability ([1]; 1000 nM) | cell viability ([1]; 10000 nM) | cell viability ([2]; 1 nM) | cell viability ([2]; 10 nM) | cell viability ([2]; 100 nM) | cell viability ([2]; 1000 nM) | cell viability ([2]; 10000 nM) | cell viability ([3]; 1 nM) | cell viability ([3]; 10 nM) | cell viability ([3]; 100 nM) | cell viability ([3]; 1000 nM) | cell viability ([3]; 10000 nM) | cell viability ([4]; 1 nM) | cell viability ([4]; 10 nM) | cell viability ([4]; 100 nM) | cell viability ([4]; 1000 nM) | cell viability ([4]; 10000 nM) | cell viability ([5]; 1 nM) | cell viability ([5]; 10 nM) | cell viability ([5]; 100 nM) | cell viability ([5]; 1000 nM) | cell viability ([5]; 10000 nM) | relative viability EC50 [6] | relative viability EC50 [7] | relative viability EC50 [8] | relative viability EC50 [9] | relative viability EC50 [10] | drug sensitivity score [11] | drug sensitivity score [12] | drug sensitivity score [13] | drug sensitivity score [14] | drug sensitivity score [15] |
| --- | --- | --- | --- | --- | --- | --- | --- | --- | --- | --- | --- | --- | --- | --- | --- | --- | --- | --- | --- | --- | --- | --- | --- | --- | --- | --- | --- | --- | --- | --- | --- | --- | --- | --- | --- |
| CC(=O)NCCNc1cc(Cl)nn2c(-c3cccc(S(=O)(=O)N(C)C)c3)c(C)nc12 [MI-14] | 99.1% | 92.2% | 99.5% | 93.1% | 83.3% | 99.1% | 96.2% | 98.2% | 102% | 75.8% | 102% | 89.4% | 87.4% | 77.2% | 78.8% | 98.8% | 101% | 99.6% | 98.2% | 89.5% | 95.6% | 98% | 96.5% | 93.2% | 93.5% | > 10 µM | > 10 µM | > 10 µM | > 10 µM | > 10 µM | 0.9 | 0.8 | 4.4 | 0 | 0 |
| CC(C)(C)CCN1C[C@@H]2[C@@H](CNC(=O)c3cc(Cl)cc(Cl)c3)[C@@H]2C1 [ML218] | 104% | 97.4% | 97.4% | 92.8% | 88.6% | 108% | 109% | 104% | 99.6% | 90.7% | 95.2% | 108% | 96.3% | 96.9% | 92.7% | 99.7% | 97.9% | 96.8% | 102% | 93.1% | 101% | 101% | 103% | 100% | 91.8% | > 10 µM | > 10 µM | > 10 µM | > 10 µM | > 10 µM | 0 | 0 | 0 | 0 | 0 |
| c1cnc(NCc2ccc(CNc3ncccn3)cc2)nc1 [MSX-122] | 92.9% | 100% | 107% | 112% | 99.2% | 104% | 100% | 109% | 99.4% | 113% | 90.6% | 103% | 102% | 92.3% | 101% | 94.7% | 103% | 106% | 99.4% | 99.8% | 101% | 98.6% | 100% | 103% | 99.1% | > 10 µM | > 10 µM | > 10 µM | > 10 µM | > 10 µM | 0 | 0 | 0 | 0 | 0 |
| CC(C)(O)CS(=O)(=O)Nc1ccc2c(c1)CCN(C(=O)COc1cccnc1)C2 [Nampt-IN-1] | 100% | 99.8% | 84.5% | 4% | 3.7% | 93.2% | 88.1% | 50.8% | 6.2% | 5.7% | 98.2% | 100% | 50.2% | 20.1% | 16.2% | 108% | 104% | 6.2% | -0.1% | 0.1% | 105% | 103% | 104% | 3.3% | 2.4% | 0.193 µM | 0.0828 µM | 0.0823 µM | 0.0392 µM | 0.348 µM | 20 | 22.9 | 21.2 | 29.3 | 17.1 |
| CC(=O)OC[C@H](N)C(=O)O [O-acetyl-L-serine] | 104% | 109% | 90.3% | 106% | 94.9% | 111% | 97.6% | 105% | 92.5% | 97.1% | 115% | 103% | 106% | 110% | 95.2% | 104% | 104% | 99.3% | 105% | 98.9% | 114% | 89.8% | 99.2% | 103% | 104% | > 10 µM | > 10 µM | > 10 µM | > 10 µM | > 10 µM | 0 | 0 | 0 | 0 | 0 |
| O=S(=O)(O)c1ccc(-c2c3nc(c(-c4ccc(S(=O)(=O)O)cc4)c4ccc([nH]4)c(-c4ccc(S(=O)(=O)O)cc4)c4nc(c(-c5ccc(S(=O)(=O)O)cc5)c5ccc2[nH]5)C=C4)C=C3)cc1 [TPPS4] | 107% | 87.2% | 91.4% | 96.4% | 101% | 94.2% | 93.1% | 109% | 99% | 90.1% | 100% | 102% | 104% | 107% | 80.5% | 101% | 94.2% | 105% | 105% | 91.6% | 110% | 102% | 93.6% | 95.7% | 81.9% | > 10 µM | > 10 µM | > 10 µM | > 10 µM | > 10 µM | 0 | 0 | 0.3 | 0 | 0.7 |
| COc1ccc(CCN(C)CCc2ccc(OC)c(OC)c2)cc1OC [YS-035] | 95.6% | 100% | 90.6% | 90.4% | 97.4% | 98.2% | 106% | 93.9% | 95.5% | 102% | 101% | 103% | 105% | 96.3% | 110% | 99.3% | 106% | 96.7% | 99.9% | 96.6% | 100% | 99.9% | 98.3% | 97.8% | 101% | > 10 µM | > 10 µM | > 10 µM | > 10 µM | > 10 µM | 0 | 0 | 0 | 0 | 0 |
